Reference: patent US20090325202A1, “Methods for Developing and Assessing Therapeutic Agents” (priority 2006, published 2009)

Experiments:
ERK1/2 [1] = assay: Panc 265 xenograft FNAB cells treated ex vivo, ERK1/2 phosphorylation; format: cell-based, human; details: Panc 265 FNAB cells; ZD1839 5 uM; 6 hours
Description: (§1) To obtain cancer cells, each animal tumor was sampled as described above. After collection of tumor FNAB samples, xenograft animals were subsequently treated with ZD1839 or CCI-779 for 28 days and tumor volumes were determined as described above. At day 7 of therapy, AD/DQ slides were prepared from tumor FNAB samples to retrospectively correlate the results of in vivo and ex vivo chemosentitivty tests from the same xenograft animal.
To determine viability of tumor cells obtained by FNAB, trypan blue dye exclusion assay was performed. The viability of tumor cells obtained by tumor FNAB from control animals was over 95%. Approximately 75,000 tumor cells were seeded into each well of a 6-well polypropylene microplate. Cells were treated in duplicates with vehicle (control) or with ZD1839 (5 uM) or CCI-779 (1 uM) in a humidified 5% CO2 incubator at 37° C. for different periods to determine the optimal treatment time to analyze drug effects.
(§2) After the treatment cells were collected, protein extracts were prepared and Western blot analysis was performed as described above. The ex vivo effect of ZD 1839 and CCI-779 on phosphorylation of ERK1/2 or S6 ribosomal proteins, respectively, was correlated with the in vivo data gathered from the FNAB smears prepared at day 7 of treatment.

ERK1/2 [2] = assay: HuCCT-1 xenograft tumor FNAB phospho-/total ERK1/2 ELISA; format: in vivo, human
Description: (§3) Four to 6-week-old female athymic (nu+/nu+) mice were purchased from Harlan (Harlan Laboratories, Washington, D.C.). The research protocol was approved by the Johns Hopkins University Animal Care Committee and animals were maintained in accordance with the guidelines of the American Association of Laboratory Animal Care. […] Mice were monitored daily for signs of toxicity and were weighed three times per week. Tumor size was evaluated three times per week by caliper measurements using the following formula: tumor volume=[length×width^2]/2. Tumor growth inhibition was calculated by tumor volume of treated mice divided by tumor volume of control mice. Experiments were terminated on day 14.
(§4) Total cell lysates were obtained from either cells cultured in vitro or from tumor FNAB samples. […] Immunoreactive proteins were visualized by enhanced chemiluminescence (Amersham International, United Kingdom). Total and phospho-ERK1/2 proteins were quantified by sandwich [LISA kits (BioSource International, Camarillo, Calif., USA) as described in the manufacturer's protocols. The reaction was read at 450 nm in an ELISA plate reader.
Western blot analysis of protein samples is a conventional method for phosphoprotein analysis, but is limited in throughput, quantitative precision and requires large sample amounts. ELISA assays offer alternatives to Western blot with higher throughput and increased sensitivity. […] For this purpose the tumor FNAB samples, which have been analyzed on Western blot above (FIG. 16A), were used to assess the expression and phosphorylation of ERK1/2 proteins by the total and phospho-specific ERK1/2 ELISA assays, respectively.
The amounts of phosphorylated ERK1/2 were normalized for the total contents of these proteins in each sample group and therapy-mediated changes in their phosphorylation status were quantified.

ERK1/2 [3] = assay: HuCCT-1 xenograft tumor FNAB Western blot, ERK1/2 activity; format: in vivo, human; details: in vivo
Description: as §3
Fine needle aspirates were obtained with a 25G needle and 10 ml syringe, passing the needle through the tumor 10 times with application of 1-2 ml suction The aspirated material was expressed onto clear glass slides and smeared. All smears were allowed to air dry and then stained with Diff-Quik stain (Baxter Healthcare, Miami, Fla.). Five to ten AD/DQ-stained cytological smears were prepared from each tumor sample. The cellular composition of each aspirate was assessed by cytopathologists.
as §4
Next, whether FNAB samples obtained from tumor tissue at the early stage of therapy can be used to predict tumor response was examined. […] Expression and phosphorylation levels of ERK 1/2 were analyzed on Western blot by using extracts prepared from AD/DQ-stained FNAB samples.

HuCCT-1 tumors = assay: HuCCT-1 xenograft tumor growth; format: in vivo, athymic (nu+/nu+) mice; details: single agents: gefitinib 150 mg/Kg i.p. days 1-5 and 8-12, CI-1040 150 mg/Kg twice a day oral days 1-14
Description: as §3
To explore the feasibility of implementing this method in in vivo studies, mouse xenografts were next employed to test whether FNAB material obtained from tumor tissue can be utilized to monitor and predict therapy response in vivo. For this purpose HuCCT-1 cholangiocarcinoma cells were used to create a xenograft mouse model of human cholangiocarcinoma. […] Tumor volumes were measured and compared with tumors from animals that received drug vehicle alone.

ERK1/2 [4] = assay: Panc 265 xenograft in vivo FNAB smears, ERK1/2 activity; design: species or system human; details: ZD1839 150 mg/Kg daily i.p., FNAB day 7
Description: Animals were either untreated or treated with ZD1839: 150 mg/Kg daily or CCI-779: 20 mg/kg days 1-5 by intraperitoneal injection
as §1, §2

ERK1/2 [5] = assay: Phospho-/total ERK1/2 ELISA in EGF-stimulated T-47D cell smears; format: cell-based, human; details: T-47D cells, AG1478 0.5 uM, PD98059 20 uM
Description: T47D cells were maintained in Dulbecco's modified Eagle's medium (Life Technologies, Inc.) supplemented with 10% fetal calf serum and antibiotics (Life Technologies, Inc.). Prior to EGF (Sigma) stimulation, cells were starved for 24 h in serum-free medium.
Total cell lysates were obtained from either cells cultured in vitro or from tumor FNAB samples. Protein extracts were resolved by 4-15% SDS-PAGE and probed with Rabbit anti-EGFR, anti-phospbo-EGFR, anti-ERK1 and anti-phospho-ERK antibodies obtained from New England Biolabs (Beverly, Mass.). Immunoreactive proteins were visualized by enhanced chemiluminescence (Amersham International, United Kingdom). Total and phospho-ERK1/2 proteins were quantified by sandwich [LISA kits (BioSource International, Camarillo, Calif., USA) as described in the manufacturer's protocols. The reaction was read at 450 nm in an ELISA plate reader.
Western blot analysis of protein samples is a conventional method for phosphoprotein analysis. However, Western blot analysis is limited in throughput and quantitative precision, and also requires large sample amounts. […] Therefore, it was tested if quantitative ELISA assays can be applied to cytologic samples to increase the assay sensitivity to measure the expression levels and activation status of specific signaling pathways. […]

AKT = assay: Ex vivo treatment of human breast cancer cells obtained by FNAB, AKT phosphorylation; format: cell-based; details: 3 hours, AG1478 0.5 uM, LY294002 10 uM
Description: (§5) To obtain cancer cells cancer tumor tissue was sampled four times with a sterile 25G short needle and tumor samples were immediately transferred into 10 ml sterile prewarmed complete RPMI-1640 culture medium containing 10% fetal calf serum, penicillin (200 ug/ml) and streptomycin (200 ug/nil). After centrifugation and cells were resuspended and distributed in 6-well microculture plates and treated in duplicates with vehicle alone (DMSO control), an EGFR inhibitor AG1478 (0.5 uM) (Calbiochem, 658548), a MEK/ERK inhibitor PD98059 (20 uM) (Biosource International, PHZ 1164) or with a PI3K/AKT inhibitor LY294002 (10 uM) (Biosource International, PHZI 144) in a humidified 5% CO2 incubator at 37° C. for 3 hours.
(§6) Following treatment nonadherent and adherent cells (collected by scraping) were pooled together in a 1.5 ml microcentrifuge tube and centrifuged at 500×g for 5 min at 4° C. After washing with PBS, cells were lysed in 100 μl of ice-cold lysis buffer and therapy-induced changes n the expression and phosphorylation levels of AKT and ERK1/2 were detected by Western blot.

ERK1/2 [6] = assay: Ex vivo treatment of human breast cancer cells obtained by FNAB, ERK1/2 phosphorylation; format: cell-based; details: 3 hours, AG1478 0.5 uM, PD98059 20 uM
Description: as §5, §6

For COc1cc2ncnc(Nc3ccc(F)c(Cl)c3)c2cc1OCCCN1CCOCC1 [gefitinib, Gefitinib], the “ERK1/2 phosphorylation ex vivo” value (ERK1/2 [1]) was “failed to block ERK1/2 phosphorylation”, the “phosphorylation levels of ERK1/2 by phospho-ERK1/2 ELISA (raw data)” value (ERK1/2 [2]; HuCCT-1 tumor FNAB samples of treated animals) was “neither gefitinib nor CI-1040 treatment alone caused any significant change” and the “increase of ERK1/2 phosphorylation (normalized for total ERK1/2)” value (ERK1/2 [2]; HuCCT-1 tumor FNAB, gefitinib alone) was 17%. For the same compound, the “ERK1/2 activity, serial FNAB sampling” value (ERK1/2 [3]) was “neither of these agents alone caused inhibition”, the “decrease in tumor volume” value (HuCCT-1 tumors) was 4% and the “ERK1/2 activity in vivo” value (ERK1/2 [4]) was “failed to block ERK1/2 activity”.

COc1cc2ncnc(Nc3cccc(Cl)c3)c2cc1OC [AG1478] was tested, and the “inhibition of EGF-induced ERK1/2 phosphorylation (phospho-ELISA normalized for total ERK1/2)” value (ERK1/2 [5]) was 80%, the “phosphorylation of AKT” value (AKT) was “reduced the phosphorylation of both ERK1/2 and AKT proteins” and the “phosphorylation of ERK1/2” value (ERK1/2 [6]) was “reduced the phosphorylation of both ERK1/2 and AKT proteins”.
